Values quoted from earlier work in patent US9642863B2, “Methods for treating chronic or unresolvable pain and/or increasing the pain threshold in a subject and pharmaceutical compositions for use therein” (White Mountain Pharma, Inc., priority 2010, dated 2017).

Legend:
[1] = test system: female-to-male transsexuals; settings: doses of testosterone at or above the male reference range
[2] = genotypic females dosed with testosterone, 36 months
women with fibromyalgia = settings: female fibromyalgia patients, transdermal testosterone
[3] = test system: chronic pain subjects on maintenance opioids; settings: four patients, testosterone adjunctive to primary opioid therapy, anecdotal
rats = settings: treatment with testosterone

SMILES: C[C@]12CC[C@H]3[C@@H](CCC4=CC(=O)CC[C@@]43C)[C@@H]1CC[C@@H]2O [testosterone]
- side effects [1]: develop hirsutism and male-like increased risk for cardiovascular disease and diabetes
- stable serum total testosterone levels [2]: about 620+/−130 ng/dL
- fibromyalgia muscle tender point pain (women with fibromyalgia): significantly improve
- quality of life [3]: improved quality of life
- pain responses to the formalin test (rats): decreased pain responses
